Measurements: patent US9376424B2, “Methods for treating post traumatic stress disorder” (AZEVAN PHARMACEUTICALS, INC., priority 2010, dated 2016)
Entries after “also recorded” stand apart in the source; their conditions may differ.

Experiments:
V2 = V2 (Homo sapiens, UniProt P30518); assay: V2 receptor inhibition data (Ki); assay type: binding; conditions: selectivity table
human V1a receptor = molecular target: T1, human V1a receptor (Homo sapiens, UniProt P37288); assay: Inhibition of phosphatidylinositol turnover (V1a); assay type: cell-based
T1 construct: host or cells: CHO cells
T1 sequence (P37288 whole entry): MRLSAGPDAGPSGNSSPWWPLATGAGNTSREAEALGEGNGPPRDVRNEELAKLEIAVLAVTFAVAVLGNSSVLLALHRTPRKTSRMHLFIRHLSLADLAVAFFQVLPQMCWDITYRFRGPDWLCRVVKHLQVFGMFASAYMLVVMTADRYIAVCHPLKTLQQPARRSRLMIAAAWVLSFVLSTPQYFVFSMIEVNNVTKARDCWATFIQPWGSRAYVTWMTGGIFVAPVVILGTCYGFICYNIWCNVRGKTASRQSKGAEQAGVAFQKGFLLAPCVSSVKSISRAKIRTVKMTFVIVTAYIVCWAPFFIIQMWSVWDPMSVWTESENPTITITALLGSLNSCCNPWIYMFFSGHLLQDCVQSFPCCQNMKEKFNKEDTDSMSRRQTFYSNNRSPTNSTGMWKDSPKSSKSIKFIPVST
Source text: Inhibition of phosphatidylinositol turnover (V1a). The physiological effects of vasopressin are mediated through specific G-protein coupled receptors. The vasopressin V1a receptor is coupled to the Gq/G11 family of G proteins and mediates phosphatidylinositol turnover. The agonist or antagonist character of the compounds of the invention may be determined by their ability to inhibit vasopressin-mediated turnover of phosphatidylinositol by the procedure described in the following paragraphs.
Cell culture and labeling of cells. Three days prior to the assay, near-confluent cultures of hV1a or hV1b cells were dissociated and seeded in 6-well tissue culture plates, about 100 wells being seeded from each 75 cm^2 flask (equivalent to 12:1 split ratio). Each well contained 1 mL of growth medium with 2 μCi of [^3H]myo-inositol (American Radiolabeled Chemicals, St. Louis, Mo., USA).
Incubations (V1a and V1b). All assays were in triplicate except for basal and 10 nM AVP (both n=6). AVP ((arginine vasopressin), Peninsula Labs, Belmont, Calif., USA (#8103)) was dissolved in 0.1N acetic acid. Test agents were dissolved in DMSO and diluted in DMSO to 200 times the final test concentration. […] The order of incubations was randomized. Incubations were initiated by removing the prelabeling medium, washing the monolayer once with 1 mL of 0.9% NaCl, and transferring the contents of the assay tubes to corresponding wells. The plates were incubated for 1 hour at 37° C. Incubations were terminated by removing the incubation medium and adding 500 μL of ice cold 5% (w/v) trichloroacetic acid and allowing the wells to stand for 15 min.
Measurement of [^3H]inositol phosphates (V1a and V1b). BioRad Poly-Prep Econo-Columns were packed with 0.3 mL of AG 1×−8 100-200 formate form resin. Resin was mixed 1:1 with water and 0.6 mL added to each column. Columns were then washed with 10 mL water. Scintillation vials (20 mL) were placed under each column. For each well, the contents were transferred to a minicolumn, after which the well was washed with 0.5 mL distilled water, which was also added to the minicolumn. The columns were then washed twice with 5 mL of 5 mM myo-inositol to elute free inositol. Aliquots (1 mL) were transferred to 20 mL scintillation vials and 10 mL of Beckman Ready Protein Plus added. After the myo-inositol wash was complete, empty scintillation vials were placed under the columns, and [^3H]inositol phosphates were eluted with three additions of 1 mL 0.5 M ammonium formate containing 0.1 N formic acid. Elution conditions were optimized to recover inositol mono-, bis-, and trisphosphates, without eluting the more metabolically inert tetrakis-, pentakis-, and hexakis-phosphates. To each sample was added 10 mL of a high salt capacity scintillation fluid such as Tru-Count High Salt Capacity or Packard Hionic-Fluor. Inositol lipids were measured by adding 1 mL of 2% sodium dodecyl sulfate (SDS) to each well, allowing the wells to stand for at least 30 min., and transferring the solution to 20 mL scintillation vials, to which 10 mL Beckman Ready Protein Plus scintillation fluid was then added. Samples were counted in a Beckman LS 3801 liquid scintillation counter for 10 min. Total inositol incorporation for each well was calculated as the sum of free inositol, inositol phosphates, and inositol lipids.
Data analysis (V1a and V1b): concentration-inhibition experiments. Concentration-response curves for AVP and concentration-inhibition curves for test agents versus 10 nM AVP were analyzed by nonlinear least-squares curve-fitting to a 4-parameter logistic function. Parameters for basal and maximal inositol phosphates, EC50 or IC50, and Hill coefficient were varied to achieve the best fit. The curve-fitting was weighted under the assumption that the standard deviation was proportional to dpm of radioactivity. Full concentration-response curves for AVP were run in each experiment. […]

[1] = tested on: adult male Long Evans rats; assay: Light:Dark Shuttle Box; assay type: in vivo, rat
Experimental: Anxiolytic Effect in the Light:Dark Shuttle Box. The light:dark shuttle box is a standard and well characterized assay for anxiolytic effects of a test compound. Rats naturally avoid the light side of the box because it is stressful. Increased time on the light side by the treatment group compared to control reflects an anxiolytic effect (Bourin and Hascoet, 2003). Adult male Long Evans rats were administered AVN251 (0.1-2 mg/kg) by oral gavage 90 min prior to testing in a light: dark shuttle box.

resident male rats = assay: Resident-Intruder Model of Stress and Aggression in Rats (neuroimaging); assay type: in vivo, rat
Source text: Resident-Intruder Model of Stress and Aggression in Rats. Neuroimaging is used to assess the blockade of stress/arousal with test compound compared to control. The effect of AVN251-HCl on functional circuitry was examined using the imaging method for awake rats. Additional details of the assay are described in Ferris et al. (2008).
Male rats in the company of a female cage mate will piloerect in the presence of a male intruder. This piloerection is a sign of stress and aggressive intent and is associated with activation of stress/arousal circuits in the brain. […] Resident male rats from six male:female pairs were imaged while fully awake. During a single imaging session, these males were treated with vehicle or AVN251-HCl (5 mg/kg).
The total volume of brain activation for resident males confronted with their mate alone, mate plus intruder, and mate plus intruder in the presence of AVN251-HCl can be viewed as 3D models. While there appears to be a general decrease in BOLD signal in major regions with AVN251-HCl treatment, sexual motivation, as assessed by the presentation of a novel receptive female, was unaffected by V1a receptor blockade.
Stress circuit activation in response to an intruder male is assessed by obtaining brain scans viewed from a caudal/dorsal perspective as translucent shells. The localization of activated voxels is mapped as 3D volumes of activation, which are composed of 10 subjects each. Once fully registered and segmented, the statistical responses for each subject are averaged on a voxel-by-voxel basis. Those averaged voxels exceeding a 2.0% threshold are shown in their appropriate spatial location. Functional images are acquired on awake rats at 4.7 T.
The 3D volumes of activation are composed from results obtained with 10 subjects in each condition. […] Particular olfactory systems measured included the anterior olfactory nucleus, olfactory tubercle, piriform cortex, n. laterial olfactory tract, and entrorhinal cortex. Particular dopaminergic systems measured included the prelimbic cortex, accumbens, ventral pallidum, medial dorsal thalamus, and ventral tegmentum.
Awake rats were imaged when presented with their mate+an intruder, a highly stressful stimulus.

V2, sequence (P30518 whole entry): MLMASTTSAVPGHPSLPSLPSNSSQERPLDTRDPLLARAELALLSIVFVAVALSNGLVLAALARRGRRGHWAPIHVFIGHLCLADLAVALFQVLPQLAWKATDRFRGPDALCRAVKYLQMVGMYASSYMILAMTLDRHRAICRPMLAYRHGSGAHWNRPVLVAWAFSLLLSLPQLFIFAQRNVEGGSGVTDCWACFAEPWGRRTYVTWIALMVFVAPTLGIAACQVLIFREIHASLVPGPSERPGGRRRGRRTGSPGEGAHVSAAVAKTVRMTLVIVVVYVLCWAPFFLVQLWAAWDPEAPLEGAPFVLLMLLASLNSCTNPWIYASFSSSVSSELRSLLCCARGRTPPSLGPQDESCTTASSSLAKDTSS

Compound: CN(Cc1cccc(C(F)(F)F)c1)C(=O)[C@@H](CC(=O)N1CCC(N2CCCCC2)CC1)N1C(=O)[C@@H](N2C(=O)OC[C@@H]2c2ccccc2)[C@H]1C=Cc1ccccc1 [Example 225, 2(R)-[[4-(Piperidinyl)piperidinyl]carbonylmethyl]-2-[3(S)-(4(S)-phenyloxazolidin-2-on-3-yl)-4(R)-(2-styryl)azetidin-2-on-1-yl]acetic acid N-methyl-N-(3-trifluoromethylbenzyl)amide]
- Ki (V2): > 1000 nM
- Ki (human V1a receptor; Cheng-Prusoff from IC50, hV1a cells, read-out: Ki, suppression of the action of AVP (inositol phosphates)): 0.05 nM
- IC50 (human V1a receptor; versus 10 nM AVP, hV1a cells, read-out: IC50, suppression of the action of AVP (inositol phosphates)): 2.68 nM
- anxiety vs. vehicle ([1]; 0.1-2 mg/kg oral gavage 90 min prior to testing): dose dependent decrease in anxiety
- light-dark entries (FIG. 2C) ([1]; 1 or 2 mg/kg oral gavage): more light-dark entries
- time in the dark (FIG. 2B) ([1]; 1 or 2 mg/kg oral gavage): less time in the dark
- time in the light (FIG. 2A) ([1]; 1 or 2 mg/kg oral gavage): significantly more time in the light
- sexual motivation (reward circuit activation by novel receptive female) (resident male rats; awake resident male rats, 5 mg/kg, listed as AVN251, 5 mg/kg): activates reward circuitry; also recorded: remained intact
- activation of stress/arousal circuit in response to male intruder (BOLD imaging) (resident male rats; awake resident male rats, mate plus intruder, 5 mg/kg): blocked the stress/arousal response
- stress and aggressive motivation compared to controls (resident male rats; oral administration, intruder stimulus): blocked stress and aggressive motivation
